Assay results: article PMC9608663, “Anti-Alzheimer and Antioxidant Effects of Nelumbo nucifera L. Alkaloids, Nuciferine and Norcoclaurine in Alloxan-Induced Diabetic Albino Rats” (Pharmaceuticals, 2022)
Values joined by “and” are separate entries in the source; they are usually repeats but may differ in a detail not shown here. Identical values can stand only once.

Columns and labels:
[1] = test system: glutathione peroxidase (GPx); assay: Glutathione peroxidase assay (GSH-Px) in blood of diabetic rats; type: in vivo, albino rats (Sprague–Dawley); conditions: 10 mg/kg, 15 days
Method: (§1) The rats were divided into seven groups (six rats in each group). Normal and diabetic control groups I and II, standard glibenclamide (10 mg/kg) group III, N. nucifera crude (100–200 mg/kg) groups IV and V and nuciferine and norcoclaurine (10 mg/kg) group VI and VII. Rats were anesthetized after 15 days and their organ sections were collected for different activities. Blood was collected from each rat and centrifuged at 4000 rpm for 10 min for antioxidant enzyme activities. The brain was homogenized in 100 mM Tris buffer (Sigma, Hamburg, Germany) (pH 8.0).
Glutathione peroxidase assay was carried out by reaction mixtures of 0.1 mL blood serum with 1.49 mL phosphate buffer (pH 7.4), 0.1 mL EDTA, 0.1 mL sodium azide, 0.1 mL NADPH, 0.05 mL GSH and 0.01 mL H2O2. The intensity of color loss of NADPH was measured at 340 nm.

[2] = test system: acetylcholinesterase (AChE); type: in vivo; conditions: blood of diabetic rats, 10 mg/kg, 15 days; table title: AChE activity, µmol AcSCh/h/mg of protein
Method: as §1
(§2) In the brain (hippocampus, cerebellum, hypothalamus, striatum and cerebral cortex) and in the blood, AChE activity was measured using calorimetric method with slight modification. The sample of 0.1 mL brain homogenate as well as blood serum (containing 100 mM potassium phosphate buffer (pH 7.5), 1 mM DTNB and 0.8 mM […] (Sigma, Hamburg, Germany) were tested as AChE enzyme. The increase in enzyme activity was measured at 412 nm after the formation of the yellow-colored anion of 4, 4-ditheo-bis-nitrobenzoic acid and experiments were performed in triplicates.

[3] = Body weight of alloxan-induced diabetic rats; type: in vivo, albino rats (Sprague–Dawley); conditions: 10 mg/kg b.w./day
Method: (§3) Forty-two (42) fully matured albino rats (200–250 g b.w.) of Sprague–Dawley types were purchased from National Institute of Health, Islamabad, Pakistan and kept under normal conditions for 15 days with 12-h dark/light rotation.
(§4) Alloxan monohydrate injection (100 mg/kg) was applied to experimental rats to induce diabetic conditions followed by giving 5% glucose water for 28 h in order to decrease the death probability in alloxan-induced rates from hyperglycemic shock. Over 300 mg/dL (3 mg/mL) blood glucose level (fasting blood plasma) was considered diabetic and a selective parameter for further study.
as §1

[4] = test system: alloxan-induced diabetic rats; assay: Blood glucose level in alloxan-induced diabetic rats; type: in vivo, albino rats (Sprague–Dawley); conditions: 10 mg/kg b.w./day
Method: as §3, §4, §1

[5] = test system: catalase (CAT); assay: Catalase assay (CAT) in blood of diabetic rats; type: in vivo, albino rats (Sprague–Dawley); conditions: 10 mg/kg, 15 days
Method: as §1, with “8.0). Protein variation for several brain structures was measured followed by protein determination of striatum (0.3 mg/mL), hippocampus (0.6.0 mg/mL), cerebellum (0.7 mg/mL) and hypothalamus (0.4 mg/mL and cerebral cortex (0.8.0 mg/mL)).” for “8.0).”
Catalase activity was determined in blood samples by modified method of Chance and Maehly. The assay mixture comprised 0.1 mL blood serum, 2.5 mL phosphate buffer (pH 5) and 0.4 mL H2O2 while the absorbance was measured at 240 nm.

[6] = target: T1, acetylcholinesterase (AChE) (Rattus norvegicus, UniProt P37136); assay: AChE activity in brain regions of diabetic rats; type: in vivo; conditions: 10 mg/kg, 15 days; for AChE activity, Cerebellum: cerebellum homogenate; for AChE activity, Cerebral Cortex: cerebral cortex homogenate; for AChE activity, Hippocampus: hippocampus homogenate; for AChE activity, Hypothalamus: hypothalamus homogenate; for AChE activity, Striatum: striatum homogenate
T1 construct: from tissue; host or cells: rat brain homogenate (cerebral cortex, cerebellum, hypothalamus, striatum, hippocampus)
T1 sequence (P37136 32-614): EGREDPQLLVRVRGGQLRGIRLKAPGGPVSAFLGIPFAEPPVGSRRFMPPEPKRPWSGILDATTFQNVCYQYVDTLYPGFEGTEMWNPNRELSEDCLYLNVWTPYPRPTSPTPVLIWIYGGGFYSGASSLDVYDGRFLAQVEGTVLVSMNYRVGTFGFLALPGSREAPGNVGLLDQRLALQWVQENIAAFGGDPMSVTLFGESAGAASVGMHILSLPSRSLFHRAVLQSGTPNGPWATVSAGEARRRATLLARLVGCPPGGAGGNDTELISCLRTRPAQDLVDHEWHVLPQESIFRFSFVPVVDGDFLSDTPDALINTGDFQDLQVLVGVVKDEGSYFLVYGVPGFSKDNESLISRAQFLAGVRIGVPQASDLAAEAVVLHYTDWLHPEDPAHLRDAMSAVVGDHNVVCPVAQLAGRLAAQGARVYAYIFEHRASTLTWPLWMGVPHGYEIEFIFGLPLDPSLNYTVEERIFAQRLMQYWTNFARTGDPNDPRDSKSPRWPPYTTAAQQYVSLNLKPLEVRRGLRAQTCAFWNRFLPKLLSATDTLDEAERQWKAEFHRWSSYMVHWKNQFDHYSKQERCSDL
Method: as §1, §2

[7] = test system: reduced glutathione (GSH); assay: Reduced glutathione assay (GSH) in blood of diabetic rats; type: in vivo, albino rats (Sprague–Dawley); conditions: 10 mg/kg, 15 days
Method: as §1
GSH assay was carried out by mixing the blood serum with substrate DTNB by the modified method of Biessels.

[8] = test system: lipid peroxidation (TBARS); assay: Lipid peroxidation assay (TBARS) in blood of diabetic rats; type: in vivo, albino rats (Sprague–Dawley); conditions: 10 mg/kg, 15 days
Method: as §1
The lipid peroxidation activity in the blood sample was determined by slight modification in Sohal’s method. The reaction mixtures containing homogenate sample (0.2 mL) in 0.1 M phosphate buffer pH 7.4 (0.58 mL), ferric chloride (0.02 mL) and ascorbic acid (0.2 mL). The reaction mixture was incubated at […] for 1 h and stopped the reaction by adding 10% trichloro-acetic acid. The reaction mixture was continuously boiled, shaken for 20 min in a water bath and centrifuged for 10 min. The formation of TBARS was monitored at wavelength of 535 nm.

[9] = test system: superoxide dismutase (SOD); assay: Superoxide dismutase assay (SOD) in blood of diabetic rats; type: in vivo, albino rats (Sprague–Dawley); conditions: 10 mg/kg, 15 days
Method: as §1
Superoxide dismutase activity was determined by an assay mixture containing 0.3 mL blood sample, 1.2 mL sodium pyrophosphate, 0.1 mL phenazine methosulphate and 0.2 mL NADH. The reaction was stopped within a minute by adding 1 mL of glacial acetic acid and the concentration of product was monitored at 560 nm.

| Structure (SMILES) | GPx [1] | AChE activity [2] | Variations in Body Weight ([3]; day 0) | Variations in Body Weight ([3]; day 5) | Variations in Body Weight ([3]; day 10) | Variations in Body Weight ([3]; day 15, 10 mg/kg/day) | Blood Glucose Level ([4]; day 0) | Blood Glucose Level ([4]; day 5) | Blood Glucose Level ([4]; day 10) | Blood Glucose Level ([4]; day 15, 10 mg/kg/day) | CAT [5] | AChE activity, Cerebellum [6] | AChE activity, Cerebral Cortex [6] | AChE activity, Hippocampus [6] | AChE activity, Hypothalamus [6] | AChE activity, Striatum [6] | GSH [7] | TBARS [8] | SOD [9] | further results |
| --- | --- | --- | --- | --- | --- | --- | --- | --- | --- | --- | --- | --- | --- | --- | --- | --- | --- | --- | --- | --- |
| COc1cc2c3c(c1OC)-c1ccccc1C[C@H]3N(C)CC2 [nuciferine] | 7.98 ± 0.9 nmol NADPH/min/mg Protein | 42 ± 7.43 % | 177.43 ± 4.19 g | 161.97 ± 2.21 g | 173.22 ± 2.67 g | 182.33 ± 3.05 g and 177.33 ± 3.05 g | 2.05 ± 3.85 mg/mL | 1.64 ± 2.51 mg/mL | 1.42 ± 1.23 mg/mL | 1.00 ± 1.45 mg/mL | 6.16 ± 0.7 E/min/mg Protein | 53 ± 1.70 µmol AcSCh/h/mg of protein | 56 ± 1.41 µmol AcSCh/h/mg of protein | 41 ± 1.10 µmol AcSCh/h/mg of protein | 55 ± 3.20 µmol AcSCh/h/mg of protein | 50 ± 1.90 µmol AcSCh/h/mg of protein | 86.96 ± 0.7 GSH/mg Protein | 1.60 ± 0.8 nmol MDA/mg Protein | 7.1 ± 0.2 SOD/mg Protein | – |
| Oc1ccc(CC2NCCc3cc(O)c(O)cc32)cc1 (stereo not shown) [norcoclaurine] | 6.70 ± 0.89 nmol NADPH/min/mg Protein | 55 ± 1.23 % | 178.22 ± 7.61 g | 159.85 ± 1.34 g | 169.11 ± 3.01 g | 178.91 ± 1.32 g | 2.10 ± 4.67 mg/mL | 1.70 ± 3.25 mg/mL | 1.58 ± 1.43 mg/mL | – | 5.1 ± 0.3 E/min/mg Protein | 57 ± 1.40 µmol AcSCh/h/mg of protein | 60 ± 0.80 µmol AcSCh/h/mg of protein | 48 ± 0.20 µmol AcSCh/h/mg of protein | 60 ± 4.30 µmol AcSCh/h/mg of protein | 56 ± 0.90 µmol AcSCh/h/mg of protein | 76.68 ± 0.4 GSH/mg Protein | 1.98 ± 0.9 nmol MDA/mg Protein | 6.2 ± 0.7 SOD/mg Protein | Blood Glucose Level ([4]; day 15): 1.08 ± 3.15 mg/mL |
| COc1ccc(Cl)cc1C(=O)NCCc1ccc(S(=O)(=O)NC(=O)NC2CCCCC2)cc1 [glibenclamide, reference compound] | 7.80 ± 1.6 nmol NADPH/min/mg Protein | 45 ± 2.01 % | 180.11 ± 1.90 g | 169.54 ± 2.41 g | 171.23 ± 2.07 g | – | 2.00 ± 1.85 mg/mL | 1.54 ± 1.68 mg/mL | 1.37 ± 1.20 mg/mL | 0.94 ± 1.20 mg/mL | 6.45 ± 3.9 E/min/mg Protein | 50 ± 1.20 µmol AcSCh/h/mg of protein | 55 ± 2.06 µmol AcSCh/h/mg of protein | 43 ± 1.10 µmol AcSCh/h/mg of protein | 50 ± 2.15 µmol AcSCh/h/mg of protein | 46 ± 1.59 µmol AcSCh/h/mg of protein | 89.52 ± 4.74 GSH/mg Protein | 1.55 ± 0.8 nmol MDA/mg Protein | 5.91 ± 0.3 SOD/mg Protein | Variations in Body Weight ([3]; day 15): 179.50 ± 1.40 g; Blood Glucose Level ([4]; day 15, listed as glibencamide, 10 mg/kg/day): 0.94 ± 1.20 mg/mL |
